Laboratory results as given in patent US20190314352A1, “ADMINISTRATION OF DIPEPTIDYL PEPTIDASE INHIBITORS” (Takeda Pharmaceutical Company Limited, priority 2005, published 2019).

What was measured:
[1] = test system: Male db/db (BKS.Cg-+Lepr^db/+Lepr^db) mice; assay: Co-administration with pioglitazone: glycosylated hemoglobin levels in mice; format: in vivo; conditions: 21 days in powder chow: 0.03% (w/w) benzoate salt of Compound I and/or 0.0075% (w/w) pioglitazone hydrochloride, n=8, mean ± SD
Method: Male db/db (BKS.Cg-+Lepr^db/+Lepr^db) mice (6 weeks of age, CLEA Japan (Tokyo, Japan)) were divided into 4 groups (n=8 in each group) comprising Group A to Group D. Group A had free access to CE-2 powder chow (CLEA Japan) for 21 days. […] Group C had free access to CE-2 powder chow (CLEA Japan) containing 0.0075% (w/w) of pioglitazone hydrochloride for 21 days. The dose of pioglitazone in Group C was calculated to be 15.4±1.5 (mean±SD) mg/kg body weight/day. […] During 21 days of administration of the powder chow, there were not significant differences in the administration amount of the powder chow in the above 4 groups. After 21 days of administration of the powder chow, blood samples were taken from the orbital veins of the mice by capillary pipette under feeding condition, and Glycosylated hemoglobin levels were measured by HPLC-based method using TOSOH automated GHb Analyzer HLC-723 G7 (TOSOH, Japan).
The values in the table means average (n=8)±standard deviation.

[2] = test system: newly diagnosed type II diabetes patients; assay: 4-hour postprandial plasma glucose (Cavg) following breakfast, 14-day repeat-dose placebo-controlled study; format: in vivo, human; conditions: for mean reduction from baseline in Cavg B / mean reduction in Cavg B calculated as a percent change: fourteen days of treatment; for 4-hour postprandial plasma glucose following breakfast, Day 14 Actual, Mean: 14 days; for 4-hour postprandial plasma glucose, Difference in Change from Baseline from Placebo, LS Mean: Day 14, ANCOVA; for 4-hour postprandial plasma glucose following breakfast, Day 14 Change from Baseline, Mean: baseline Day −1
From the text: Data was collected at each study visit.
The primary efficacy analysis was based on change in mean 4-hour prandial glucose concentrations (Cavg) from Day −1 to Day 14. Table A summarizes the primary efficacy endpoint measured following breakfast.

[3] = test system: newly diagnosed type II diabetes patients; assay: Fasting fructosamine, 14-day repeat-dose placebo-controlled study; format: in vivo, human; conditions: for Fasting Fructosamine, Day 15 Actual, Mean: type II diabetes patients; for Fasting Fructosamine, Difference in Change from Baseline from Placebo, LS Mean: Day 15, ANCOVA; for Fasting Fructosamine, Day 15 Change from Baseline, Mean: baseline Day −7
Method: (§1) Blood samples were collected on Days 6, 16, 17, and 21 for analysis of efficacy based on change in mean 4-hour postprandial plasma glucose (Cavg) from Day −1 to Day 14. Secondary efficacy endpoints included mean 4-hour prandial fructosamine, and glycosylated hemoglobin (HbA1c). Data was collected at each study visit. Inhibition of DPPIV activity was also determined using an assay validated for human plasma samples.

[4] = test system: newly diagnosed type II diabetes patients; assay: Glycosylated hemoglobin (HbA1c), 14-day repeat-dose placebo-controlled study; format: in vivo, human; conditions: one time per day at the specified dosage levels, extended treatment; expected
[5] = test system: newly diagnosed type II diabetes patients; assay: Fasting fructosamine, 14-day repeat-dose placebo-controlled study; format: in vivo, human; conditions: for Fasting Fructosamine, Difference in Change from Baseline from Placebo, LS Mean: Day 15, ANCOVA
[6] = test system: newly diagnosed type II diabetes patients; assay: Glycosylated hemoglobin (HbA1c), 14-day repeat-dose placebo-controlled study; format: in vivo, human; conditions: for HbA1c, Difference in Change from Baseline from Placebo, LS Mean: Day 15, ANCOVA; for HbA1c, Day 15 Change from Baseline, Mean: baseline Day −7
Method: as §1

SMILES: Cn1c(=O)cc(N2CCC[C@@H](N)C2)n(Cc2ccccc2C#N)c1=O [Compound I, 2-[[6-[(3R)-3-amino-1-piperidinyl]-3,4-dihydro-3-methyl-2,4-dioxo-1(2H)-pyrimidinyl]methyl]-benzonitrile]
- Glycosylated Hemoglobin (%) [1]: 5.8 ± 0.5%
- mean reduction from baseline in Cavg B ([2]; 25 mg group): 33 mg/dL
- mean reduction in Cavg B calculated as a percent change ([2]; 25 mg group): 15%
- 4-hour postprandial plasma glucose following breakfast, Day 14 Actual, Mean ([2]; 25 mg/day, type II diabetes patients): 203.2 mg/dL
- 4-hour postprandial plasma glucose, Difference in Change from Baseline from Placebo, LS Mean ([2]; 25 mg/day): -39.9 mg/dL
- 4-hour postprandial plasma glucose following breakfast, Day 14 Change from Baseline, Mean ([2]; 25 mg/day): -32.5 mg/dL
- mean reduction from baseline in Cavg B ([2]; 100 mg group): 37 mg/dL
- mean reduction in Cavg B calculated as a percent change ([2]; 100 mg group): 17%
- 4-hour postprandial plasma glucose following breakfast, Day 14 Actual, Mean ([2]; 100 mg/day, type II diabetes patients): 173.5 mg/dL
- 4-hour postprandial plasma glucose, Difference in Change from Baseline from Placebo, LS Mean ([2]; 100 mg/day): -48.6 mg/dL
- 4-hour postprandial plasma glucose following breakfast, Day 14 Change from Baseline, Mean ([2]; 100 mg/day): -37.2 mg/dL
- mean reduction from baseline in Cavg B ([2]; 400 mg group): 66 mg/dL
- mean reduction in Cavg B calculated as a percent change ([2]; 400 mg group): 24%
- 4-hour postprandial plasma glucose following breakfast, Day 14 Actual, Mean ([2]; 400 mg/day, type II diabetes patients): 198.6 mg/dL
- 4-hour postprandial plasma glucose, Difference in Change from Baseline from Placebo, LS Mean ([2]; 400 mg/day): -68.3 mg/dL
- 4-hour postprandial plasma glucose following breakfast, Day 14 Change from Baseline, Mean ([2]; 400 mg/day): -65.6 mg/dL
- 4-hour postprandial plasma glucose following breakfast, Day 14 Actual, Mean ([2]; All Active (25, 100, 400 mg/day combined)): 191.8 mg/dL
- 4-hour postprandial plasma glucose, Difference in Change from Baseline from Placebo, LS Mean ([2]; All Active): -52.3 mg/dL
- 4-hour postprandial plasma glucose following breakfast, Day 14 Change from Baseline, Mean ([2]; All Active): -44.3 mg/dL
- Fasting Fructosamine, Day 15 Actual, Mean ([3]; 25 mg/day for 14 days): 310.7 µmol/L
- Fasting Fructosamine, Difference in Change from Baseline from Placebo, LS Mean ([3]; 25 mg/day): -9.6 µmol/L
- Fasting Fructosamine, Day 15 Actual, Mean ([3]; 100 mg/day for 14 days): 263.9 µmol/L
- Fasting Fructosamine, Day 15 Change from Baseline, Mean ([3]; 100 mg/day): -25.6 µmol/L
- Fasting Fructosamine, Day 15 Actual, Mean ([3]; 400 mg/day for 14 days): 312.6 µmol/L
- Fasting Fructosamine, Day 15 Change from Baseline, Mean ([3]; 400 mg/day): -19.9 µmol/L
- Fasting Fructosamine, Difference in Change from Baseline from Placebo, LS Mean ([3]; All Active): -28.6 µmol/L
- Fasting Fructosamine, Day 15 Change from Baseline, Mean ([3]; All Active): -12.9 µmol/L
- decrease of hemoglobin A1c level compared to placebo control [4]: greater than 0.5%
- Fasting Fructosamine, Day 15 Change from Baseline, Mean ([5]; 25 mg/day, baseline Day −7): 6.3 µmol/L
- Fasting Fructosamine, Difference in Change from Baseline from Placebo, LS Mean ([5]; 100 mg/day): -42.9 µmol/L
- Fasting Fructosamine, Difference in Change from Baseline from Placebo, LS Mean ([5]; 400 mg/day): -33.2 µmol/L
- Fasting Fructosamine, Day 15 Actual, Mean ([5]; All Active, 14 days): 295.3 µmol/L
- Glycosylated Hemoglobin (HbA1c), Day 15 Actual, Mean ([6]; 25 mg/day for 14 days, type II diabetes patients): 7.76%
- HbA1c, Difference in Change from Baseline from Placebo, LS Mean ([6]; 25 mg/day): −0.27%
- HbA1c, Day 15 Change from Baseline, Mean ([6]; 25 mg/day): −0.22%
- Glycosylated Hemoglobin (HbA1c), Day 15 Actual, Mean ([6]; 100 mg/day for 14 days, type II diabetes patients): 7.25%
- HbA1c, Difference in Change from Baseline from Placebo, LS Mean ([6]; 100 mg/day): −0.45%
- HbA1c, Day 15 Change from Baseline, Mean ([6]; 100 mg/day): −0.40%
- Glycosylated Hemoglobin (HbA1c), Day 15 Actual, Mean ([6]; 400 mg/day for 14 days, type II diabetes patients): 7.82%
- HbA1c, Difference in Change from Baseline from Placebo, LS Mean ([6]; 400 mg/day): −0.32%
- HbA1c, Day 15 Change from Baseline, Mean ([6]; 400 mg/day): −0.28%
- Glycosylated Hemoglobin (HbA1c), Day 15 Actual, Mean ([6]; All Active, 14 days): 7.60%
- HbA1c, Difference in Change from Baseline from Placebo, LS Mean ([6]; All Active): −0.35%
- HbA1c, Day 15 Change from Baseline, Mean ([6]; All Active): −0.30%

SMILES: CCc1ccc(CCOc2ccc(CC3SC(=O)NC3=O)cc2)nc1 (stereo not drawn) [Pioglitazone, 5-{[4-(2-(5-ethyl-2-pyridyl)ethoxy)phenyl]-methyl}-thiazolidine-2,4-dione, reference compound]
- Glycosylated Hemoglobin (%) [1]: 5.0 ± 0.7%
